According to ChEMBL document CHEMBL5523672, “Thiazol-4(5H)-one analogs as potent tyrosinase inhibitors: Synthesis, tyrosinase inhibition, antimelanogenic effect, antioxidant activity, and in silico docking simulation” (Bioorg Med Chem, 2024):
Active and inactive are the calls of the source. The rule behind the calls is not given here.

What was measured:
[1] = Antioxidant activity assessed as ABTS radical scavenging activity at 100 uM measured at 1 min interval for 10 mins by microplate reader analysis; format: functional
[2] = Antioxidant activity assessed as ROS scavenging activity at 40 uM incubated for 30 mins under dark condition in presence of SIN-1 by microplate reader assay; format: functional
[3] = Antioxidant activity assessed as DPPH radical scavenging activity at 500 uM incubated for 30 mins under dark condition by microplate reader assay; format: functional
[4] = biological target: T1, Mushroom tyrosinase (Agaricus bisporus, UniProt O42713+Q00024+C7FF04+C7FF05); test: Inhibition of mushroom tyrosinase using L-DOPA as substrate incubated for 30 mins by microplate reader assay; format: protein assay
[5] = biological target: T1, Mushroom tyrosinase; test: Inhibition of mushroom tyrosinase using L-tyrosine as substrate incubated for 30 mins by microplate reader assay; format: protein assay
[6] = biological target: T1, Mushroom tyrosinase; test: Inhibition of mushroom tyrosinase using varying levels of L-DOPA as substrate by Dixon plot analysis; format: protein assay
[7] = test system: B16-F10; test: Antimelanogenic activity against IBMX/[…] stimulated mouse B16-F10 cells assessed as reduction in intracellular melanin production preincubated for 1 hr followed by IBMX/[…] addition and measured after 72 hrs by microplate reader assay; format: functional, cell-based; settings: dose 5-20 µM, time 73.0 hrs
[8] = biological target: T2, Tyrosinase (Mus musculus) (UniProt P11344); test: Inhibition of tyrosinase activity in IBMX/[…] stimulated mouse B16-F10 cells preincubated for 1 hr followed by IBMX/[…] addition and measured after 72 hrs by microplate reader assay; format: cell-based; settings: dose 5-20 µM, time 73.0 hrs
T2 sequence (whole entry): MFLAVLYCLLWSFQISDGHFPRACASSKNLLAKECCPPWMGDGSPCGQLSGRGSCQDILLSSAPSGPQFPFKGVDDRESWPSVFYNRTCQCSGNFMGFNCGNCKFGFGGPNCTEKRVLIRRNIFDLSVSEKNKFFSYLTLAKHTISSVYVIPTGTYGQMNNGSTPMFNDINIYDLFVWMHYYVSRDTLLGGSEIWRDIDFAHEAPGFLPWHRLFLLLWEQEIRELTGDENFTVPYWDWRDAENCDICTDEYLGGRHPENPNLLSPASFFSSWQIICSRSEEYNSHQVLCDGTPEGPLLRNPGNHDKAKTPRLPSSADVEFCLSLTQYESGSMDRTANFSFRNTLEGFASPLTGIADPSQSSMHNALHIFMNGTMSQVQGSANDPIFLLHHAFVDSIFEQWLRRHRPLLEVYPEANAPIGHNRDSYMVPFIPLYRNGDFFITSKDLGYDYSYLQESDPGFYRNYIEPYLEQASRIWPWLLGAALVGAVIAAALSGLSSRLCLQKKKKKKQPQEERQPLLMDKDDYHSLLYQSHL

[9] = biological target: T3, Mushroom tyrosinase (Agaricus bisporus) (UniProt O42713+Q00024+C7FF04+C7FF05); test: Competitive inhibition of mushroom tyrosinase assessed as increase in Km with constant Vmax at 25 to 100 uM using varying levels of L-DOPA as substrate by Lineweaver-Burk plot analysis; format: protein assay; settings: dose 25-100 µM
[10] = test system: B16-F10; test: Cytotoxicity against mouse B16-F10 cells upto 20 uM incubated for 72 hrs by EZ-Cytox method; format: toxicity, cell-based; settings: b16-f10, 72 h
[11] = biological target: T3, Mushroom tyrosinase (Agaricus bisporus); test: Potency index, ratio of kojic acid IC50 to test compound IC50 for inhibition of mushroom tyrosinase using L-Dopa as substrate; format: protein assay
[12] = biological target: T3, Mushroom tyrosinase (Agaricus bisporus); test: Potency index, ratio of kojic acid IC50 to test compound IC50 for inhibition of mushroom tyrosinase using L-Tyrosine as substrate; format: protein assay
[13] = biological target: T3, Mushroom tyrosinase (Agaricus bisporus); test: Mixed type inhibition of mushroom tyrosinase at 3 to 12 uM using varying levels of L-DOPA as substrate by Lineweaver-Burk plot analysis; format: protein assay; settings: dose 3-12 µM

Structure (SMILES) | Activity [1] | Activity [2] | Activity [3] | IC50 [4] [µM] | IC50 [5] [µM] | Ki [6] [µM] | Activity [7] | inhibition [8] | inhibition [9] | Activity [10] | Ratio IC50 [11] | Ratio IC50 [12] | inhibition [13]
COc1ccc(CNC2=NC(=O)/C(=C/c3ccc(F)cc3F)S2)cc1 | inactive | inactive | inactive | 179.2 | > 200 | – | – | – | – | – | – | – | –
Cc1c(C)c2c(c(C)c1O)CCC(C)(C(=O)O)O2 (stereo unspecified) | 99.9% | Active | – | – | – | – | – | – | – | – | – | – | –
COc1ccc(CNC2=NC(=O)/C(=C/c3cc(C(C)(C)C)c(O)c(C(C)(C)C)c3)S2)cc1 | 41% | inactive | > 80% | 100.9 | > 200 | – | – | – | – | – | – | – | –
COc1ccc(CNC2=NC(=O)/C(=C/c3ccc(O)cc3)S2)cc1 | – | – | inactive | 29.2 | > 200 | – | – | – | – | – | – | – | –
COc1ccc(/C=C2\SC(NCc3ccc(OC)cc3)=NC2=O)cc1 | inactive | Active | inactive | > 200 | > 200 | – | – | – | – | – | – | – | –
COc1ccc(CNC2=NC(=O)/C(=C/c3ccc(OC)c(OC)c3)S2)cc1 | inactive | Active | inactive | 136 | > 200 | – | – | – | – | – | – | – | –
COc1ccc(CNC2=NC(=O)/C(=C/c3ccc(OC)c(O)c3)S2)cc1 | 41% | inactive | – | 13 | 107.9 | 65.83 | Dose-Dependent Effect | Dose-Dependent Effect | Active | Non-Toxic | – | – | –
COc1ccc(CNC2=NC(=O)/C(=C/c3ccc(OC)cc3OC)S2)cc1 | inactive | Active | inactive | 146.4 | > 200 | – | – | – | – | – | – | – | –
COc1ccc(CNC2=NC(=O)/C(=C/c3ccc(O)c(OC)c3)S2)cc1 | 41% | inactive | 93% | 78.1 | 29.4 | – | – | – | – | – | – | – | –
COc1ccc(CNC2=NC(=O)/C(=C/c3ccc(F)c(F)c3)S2)cc1 | inactive | inactive | inactive | 79.5 | > 200 | – | – | – | – | – | – | – | –
O=C1O[C@H]([C@@H](O)CO)C(O)=C1O | – | – | 96% | – | – | – | – | – | – | – | – | – | –
COc1ccc(CNC2=NC(=O)/C(=C/c3cc(OC)c(OC)c(OC)c3)S2)cc1 | inactive | Active | inactive | > 200 | > 200 | – | – | – | – | – | – | – | –
CCOc1cc(/C=C2\SC(NCc3ccc(OC)cc3)=NC2=O)ccc1O | 41% | inactive | > 80% | 98.5 | 174.2 | – | – | – | – | – | – | – | –
COc1ccc(CNC2=NC(=O)/C(=C/c3cc(OC)c(O)c(OC)c3)S2)cc1 | 41% | inactive | – | > 200 | > 200 | – | – | – | – | – | – | – | –
COc1ccc(CNC2=NC(=O)/C(=C/c3ccc(O)c(O)c3)S2)cc1 | 75% | Active | 100% | 105.1 | > 200 | – | – | – | – | – | – | – | –
COc1ccc(CNC2=NC(=O)/C(=C/c3ccc(O)cc3O)S2)cc1 | 90% | inactive | > 80% | 0.4 | 2.1 | 1.1 | Dose-Dependent Effect | Dose-Dependent Effect | – | Non-Toxic | 19 | 26 | Active
